The subject of the assay is mRNA for UGCG in the mouse preputial gland. The conditions noted are these: gonadectomized male mice, medium-term treatment, effect visible at 96 hours.

Protocol: The expression of the genes was analyzed on an Affymetrix station (microfluidic model; hybridization oven; scanner; computer) following the protocols provided by the company. Briefly, the total RNA isolated from the tissues is transcribed to cDNA. From the double-stranded cDNA, a cRNA labeled with biotin is synthesized using T7 polymerase and a precursor NTP conjugated to biotin. The cRNAs are then fragmented to small sized fragments. All the molecular biology steps are checked using the Agilent “Lab on a chip” system in order to confirm the good efficiencies of the enzymatic reactions. The Affymetrix chip is hybridized with the biotinylated cRNA, rinsed and then fluorescence labeled using a fluorophore conjugated to streptavidin. After washings, the chip is scanned and the results are calculated using the MAS5 software provided by Affymetrix. An expression value is obtained for each gene as well as the indication of the significance of the value obtained.
B. Male mice were gonadectomized and treated with the vehicle or DHT. The preputial glands were removed for a period ranging up to 4 days (androgenic treatment alone—observation of a short-term kinetics). The RNA was isolated and the expression of the genes was analyzed by the Affymetrix technique.

Consider `C[C@]12CCC(=O)C[C@@H]1CC[C@@H]1[C@@H]2CC[C@]2(C)[C@@H](O)CC[C@@H]12` [DHT, Dihydrotestosterone], for which the “mRNA for UGCG in the mouse preputial gland” value is listed as “reduced”.
